Like-named read-outs stand apart in the source and are kept apart here.
Tests used:
[1] = system: Retinoid Acid Receptor (RAR) and Retinoid X Receptor (RXR); conditions: cited from earlier work
Gr-1+ cells [2] = conditions: tumor-bearing mice, cited from earlier work
human MDSCs = conditions: in vitro; cited from earlier work
Gr-1+ cells [3] = conditions: in vitro; cited from earlier work
MDSCs = assay: ATRA in patients with metastatic renal cell carcinoma: MDSC and DC; format: in vivo, human
MDSC = assay: Randomized phase II study: proportion of MDSC before and after immunization; format: in vivo, human
Experimental: To assess immune response, PBMCs were collected from patients at different time points during the treatment (FIG. 4) and kept frozen in liquid nitrogen. All samples from one patient were analyzed simultaneously to reduce inter-experimental variability. PBMCs were thawed, incubated overnight in complete medium (RPMI-1640 supplemented with antibiotics and 10% FBS) and then used in experiments. Cell viability was greater than 80%.

ES-SCLC = assay: Randomized phase II study in ES-SCLC (NCT00617409): objective response and survival; format: in vivo, human; conditions: arm A (observation, no vaccine)
Text: Patients with ES-SCLC were enrolled to this randomized phase II study. […] After receiving initial chemotherapy, (4-6 cycles of a standard platinum/etoposide regimen as first-line chemotherapy), patients were enrolled and randomized. Additional eligibility included; stable disease (SD) or better with Eastern Cooperative Oncology Group (ECOG) performance status of 0 to 1, and adequate organ function were screened for initial registration approximately 4-6 weeks after the completion of first-line chemotherapy. Prophylactic cranial irradiation (PCI) was permitted.
Each vaccine consisted of 2-5×10^6 Ad-p53 DCs. Cells were injected intradermally, at two-week intervals for three times (three vaccine doses). Patients were restaged approximately 2 weeks after the 3rd vaccine dose. Patients without signs of disease progression (PD) underwent a second leukapheresis and then vaccinated 3 more times at 4-week intervals. Patients on Arm C also received 150 mg/m^2 ATRA for 3 days prior to each vaccine administration (followed by vaccine administration on the next day).
All patients were followed until evidence of PD at which time they received salvage or second line chemotherapy with single agent paclitaxel (200 mg/m2 IV every 3 weeks, 4-6 cycles).
The primary objective was to evaluate the efficacy of second line paclitaxel in the two experimental regimens (Arms B and C). […]

advanced stage NSCLC = conditions: cited from earlier work
[4] = 38 patients; cited from earlier work
[5] = cited from earlier work
[6] = system: PD-L1 expressing or negative tumors; conditions: cited from earlier work; for overall response rate (ORR): all patients

For CC1=C(/C=C/C(C)=C/C=C/C(C)=C/C(=O)O)C(C)(C)CCC1 [ATRA, all-trans-retinoic acid], the “relative affinity for RAR and RXR” value [1] is listed as “higher affinity to RAR”, the “presence of Gr-1+ cells” value (Gr-1+ cells [2]; in vivo administration) is listed as “dramatically reduces the presence of Gr-1^+ cells” and the “effect of tumor vaccines” value (Gr-1+ cells [2]) is listed as “improves the effect of tumor vaccines”. For the same compound, the “fraction of MDSCs becoming DC-like” value (human MDSCs) was “⅔”, the “fraction of MDSCs becoming myeloid” value (human MDSCs) was “⅓” and the “differentiation and immunosuppressive effect of Gr-1+ cells” value (Gr-1+ cells [3]) was “differentiates these cells in vitro and removes their immunosuppressive effect”. The MDSC/DC ratio (MDSCs) was “improved MDSC/DC ratio to control levels”, the “presence of MDSC” value (MDSCs) was “significantly decreased the presence of MDSC” and the “proportion of CD11b+CD14−CD33+ MDSC” value (MDSC; patients treated with ATRA (arm C), p=0.03) was “decreased less dramatically but also significantly”. For the same compound, the “presence of Lin−HLA-DR−CD33+ MDSC” value (MDSC; patients treated with ATRA (arm C: vaccine plus 150 mg/m2 ATRA), p=0.02) was “decreased more than two-fold”.

With CC(=O)O[C@H]1C(=O)[C@@]2(C)[C@H]([C@H](OC(=O)c3ccccc3)[C@]3(O)C[C@H](OC(=O)[C@H](O)[C@@H](NC(=O)c4ccccc4)c4ccccc4)C(C)=C1C3(C)C)[C@]1(OC(C)=O)CO[C@@H]1C[C@@H]2O [paclitaxel] the “OR to paclitaxel (or other second line treatment)” value (ES-SCLC) was 1/11.

In the case of “MK-3475: humanized monoclonal antibody of the IgG4/kappa isotype blocking the interaction between PD-1 and its ligands”, the “patients responding to therapy” value (advanced stage NSCLC; PD-L1 high tumors, Six of 9, 95% CI 30-93%) is given as 67%, the “patients responding to therapy” value (advanced stage NSCLC; PD-L1 low tumors, 0/22, 95% CI 0-15%) is given as 0% and the “overall objective response rate” value (advanced stage NSCLC; investigator-assessed irRC, 38 patients) is given as 24%. For the same compound, the drug-related deaths [4] was “no drug-related deaths”, the “grade 3/4 event (grade 3 pulmonary edema)” value [4] was “one” and the “patients who developed grade 3/4 pneumonitis” value ([5]; 2 patients in each schedule) was “Four”. The “drug-related adverse event: arthralgia” value ([5]; 217 patients) was 6.1%, the “drug-related adverse event: pruritis” value ([5]; 217 patients) was 5.4% and the “drug-related adverse event: pyrexia” value ([5]; 217 patients) was 3.6%. The “patients with grade 3/4 drug-related adverse events” value ([5]; 217 patients) was “Six”, the ORR ([6]; PD-L1 expressing tumors, RECIST, (16-30%)) was 23% and the ORR ([6]; PD-L1 expressing tumors, irRC, 95% CI 14-26%) was 19%. The ORR ([6]; PD-L1 negative tumors, RECIST, (2-23%)) was 9%, the ORR ([6]; PD-L1 negative tumors, irRC, 95% CI 4-27%) was 13% and the “overall response rate (ORR)” value ([6]; RECIST v1.1, 95% CI 15-26%) was 20%. For the same compound, the “overall response rate (ORR)” value ([6]; irRC, 10 mg/kg Q2W or Q3W, 95% CI 13-24%) was 18%.

From patent US11071775B2, “Combination immunotherapy for treating cancer” (H. Lee Moffitt Cancer Center and Research Institute, Inc., priority 2015, dated 2021)
